Here are results for seven compounds from PubChem BioAssay (NCI).

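In this assay, cells in 96-well plates receive the compound at five concentrations for 48 hours. Endpoints are linearly interpolated between the surrounding concentrations. GI50 marks 50% less growth. At the TGI there is no net growth.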

Test systems include HOP-92 NSCLC; SR leukemia; RXF 393 renal; RPMI-8226 leukemia; HCT-15 colon; OVCAR-5 ovarian; HT29 colon; 786-0 renal; PC-3 prostate; ACHN renal.
Holding throughout (assay): NCI anticancer screen, dose series, 48 h

On to `COc1cc2cc(Oc3ccc(NC(=O)Nc4cc(C(F)(F)F)cc(C(F)(F)F)c4)cc3)c(C)nc2cc1OCCN1CCCCC1`, for which the GI50 in the experiment on HOP-92 NSCLC is 1.24 µM; in the experiment on SR leukemia, 1.75 µM; with RXF 393 renal, 1.59 µM; in the experiment on RPMI-8226 leukemia, 2.08 µM; with HCT-15 colon, 1.62 µM; in the experiment on OVCAR-5 ovarian, 1.63 µM. Also, the GI50 is 1.83 µM in the experiment on HT29 colon, 1.71 µM in the experiment on 786-0 renal, 1.49 µM with PC-3 prostate and 1.63 µM with ACHN renal. The TGI is 2.57 µM in the experiment with HOP-92 NSCLC; 5.79 µM in the experiment with SR leukemia; 3.2 µM in the experiment with RXF 393 renal; 4.72 µM in the experiment on RPMI-8226 leukemia; 3.09 µM in the experiment with HCT-15 colon; 3.02 µM with OVCAR-5 ovarian. The TGI in the experiment with HT29 colon is 3.37 µM; in the experiment on 786-0 renal it was 3.25 µM; in the experiment on PC-3 prostate, 2.85 µM; in the experiment on ACHN renal it was 2.99 µM.
As for `O=C(N/N=C\c1cc(Br)cc(Br)c1O)N/N=C/c1cc(Br)cc(Br)c1O`, the GI50 is 1.85 µM in the experiment on HOP-92 NSCLC; 1.13 µM in the experiment on SR leukemia; 3.57 µM in the experiment on RXF 393 renal; 2.72 µM in the experiment with RPMI-8226 leukemia; 2.77 µM in the experiment on HCT-15 colon; 10.6 µM with OVCAR-5 ovarian. Further, the GI50 in the experiment with HT29 colon is 5.93 µM; in the experiment with 786-0 renal it was 10.1 µM; in the experiment on PC-3 prostate it was 2.9 µM; with ACHN renal, 4.06 µM. Moreover, the TGI with HOP-92 NSCLC was found to be 16.4 µM; with SR leukemia it was 26.7 µM; in the experiment with RXF 393 renal it was 27.3 µM; with RPMI-8226 leukemia, 10.6 µM; with HCT-15 colon it was 16.1 µM; in the experiment on OVCAR-5 ovarian, 27.6 µM. Moreover, the TGI with HT29 colon stood at 18.3 µM; with 786-0 renal, 23.1 µM; with PC-3 prostate it was 16.7 µM; in the experiment on ACHN renal, 13.5 µM.
Turning to `CCc1cc(Nc2nccc(-c3c(-c4ccc(OC)c(C(=O)Nc5c(F)cccc5F)c4)nc4ccccn34)n2)c(OC)cc1N1CCC(N2CCN(S(C)(=O)=O)CC2)CC1`, the GI50 was 1.14 µM with HOP-92 NSCLC; more than 100 µM in the experiment on SR leukemia; more than 47 µM with RXF 393 renal; more than 100 µM with RPMI-8226 leukemia; more than 100 µM in the experiment with HCT-15 colon; more than 100 µM in the experiment on OVCAR-5 ovarian. The GI50 with 786-0 renal, in the experiment on PC-3 prostate and in the experiment on ACHN renal was more than 100 µM throughout. The TGI in the experiment on HOP-92 NSCLC was more than 80 µM; in the experiment on SR leukemia it was more than 100 µM; in the experiment on RXF 393 renal it was more than 100 µM; in the experiment on RPMI-8226 leukemia it was more than 100 µM; with HCT-15 colon it was more than 100 µM; in the experiment on OVCAR-5 ovarian, more than 100 µM. Further, the TGI in the experiment on HT29 colon, with 786-0 renal, in the experiment on PC-3 prostate and in the experiment with ACHN renal was more than 100 µM each time.
Regarding `S=C1NC2=C(CCOc3c2ccc2ccccc32)C(c2ccc(Cl)cc2)N1` (stereo not drawn), the GI50 in the experiment on HOP-92 NSCLC was 30.5 µM; with SR leukemia, 30.6 µM; in the experiment on RXF 393 renal, 39 µM; with RPMI-8226 leukemia, 25 µM; in the experiment on HCT-15 colon, 14.3 µM; in the experiment with OVCAR-5 ovarian, 73.9 µM. Moreover, the GI50 in the experiment with HT29 colon is 33.5 µM; in the experiment on 786-0 renal, 50.5 µM; in the experiment with PC-3 prostate, 35.8 µM; in the experiment on ACHN renal, 36.4 µM. Also, the TGI in the experiment on HOP-92 NSCLC is more than 100 µM; with SR leukemia, more than 100 µM; in the experiment on RXF 393 renal it was more than 100 µM; in the experiment with RPMI-8226 leukemia, more than 100 µM; in the experiment with HCT-15 colon it was 86 µM; in the experiment on OVCAR-5 ovarian it was more than 100 µM. In addition, the TGI in the experiment with HT29 colon, with 786-0 renal, with PC-3 prostate and with ACHN renal was more than 100 µM each time.
With `C=C1C(=O)O[C@H]2[C@H]1CC/C(COC(=O)c1ccc(Br)cc1)=C\CC[C@@]1(C)O[C@@H]21`, the GI50 with HOP-92 NSCLC is 1.72 µM; in the experiment on SR leukemia, 0.343 µM; with RXF 393 renal, 1.46 µM; with RPMI-8226 leukemia, 0.543 µM; in the experiment on HCT-15 colon it was 1.1 µM; in the experiment with OVCAR-5 ovarian, 1.68 µM. For the same compound, the GI50 with HT29 colon is 1.13 µM; with 786-0 renal, 1.62 µM; in the experiment on PC-3 prostate it was 1.69 µM; in the experiment with ACHN renal, 1.45 µM. In addition, the TGI amounted to 3.29 µM in the experiment with HOP-92 NSCLC; 4.75 µM in the experiment on SR leukemia; 2.84 µM with RXF 393 renal; 3.85 µM in the experiment on RPMI-8226 leukemia; 3.06 µM in the experiment with HCT-15 colon; 3.62 µM in the experiment with OVCAR-5 ovarian. In addition, the TGI with HT29 colon is 3.43 µM; in the experiment with 786-0 renal, 3.09 µM; in the experiment with PC-3 prostate, 3.19 µM; in the experiment on ACHN renal, 2.76 µM.
Turning to `NC(=S)c1cn(C2OC(CO)C(O)C2O)c2ncnc(N)c12` (stereo not drawn), the GI50 in the experiment with HOP-92 NSCLC is 0.154 µM; in the experiment on SR leukemia, 0.0625 µM; with RXF 393 renal, 0.307 µM; with RPMI-8226 leukemia it was 0.099 µM; in the experiment with HCT-15 colon it was 0.191 µM; in the experiment on OVCAR-5 ovarian it was 0.353 µM. The GI50 with HT29 colon is 0.181 µM; in the experiment on 786-0 renal, 0.356 µM; in the experiment with PC-3 prostate, 0.283 µM; with ACHN renal, 0.229 µM. The TGI in the experiment on RXF 393 renal was more than 100 µM; in the experiment with RPMI-8226 leukemia, 0.448 µM; with HT29 colon, 3.96 µM; in the experiment on PC-3 prostate, more than 20.1 µM.
For the compound `CC[C@@]1(O)C(=O)N(CCN(C)C)Cc2c1cc1n(c2=O)Cc2cc3ccccc3nc2-1`, the GI50 in the experiment with HOP-92 NSCLC is more than 25.9 µM; in the experiment on SR leukemia it was 6.24 µM; with RXF 393 renal, 71.4 µM; in the experiment with RPMI-8226 leukemia it was more than 43.9 µM; with HCT-15 colon, 33.1 µM; with OVCAR-5 ovarian it was more than 100 µM. Besides, the GI50 in the experiment with HT29 colon is 24.6 µM; in the experiment on 786-0 renal, 8.09 µM; in the experiment with PC-3 prostate, 41.3 µM; with ACHN renal it was 4.31 µM. Further, the TGI with HOP-92 NSCLC, in the experiment on SR leukemia, in the experiment on RXF 393 renal, in the experiment with RPMI-8226 leukemia, with HCT-15 colon and with OVCAR-5 ovarian was more than 100 µM in each case. The TGI in the experiment on HT29 colon, in the experiment on 786-0 renal, in the experiment on PC-3 prostate and in the experiment with ACHN renal was more than 100 µM throughout.
